Laboratory results published in patent US8952024B2, “Herbicidal pyrimidone derivatives” (E I du Pont de Nemours and Company, priority 2009, dated 2015).

Tests used:
Assay in all cases: Test A pre-/postemergence plant response
Type in all cases: in vivo
[1] = test system: velvetleaf (Abutilon theophrasti); conditions: for Velvetleaf plant response rating: visual injury, 0 to 100 scale (0 no effect, 100 complete control)
Text: (§1) Seeds of barnyardgrass (Echinochloa crus-galli), large crabgrass (Digitaria sanguinalis), giant foxtail (Setaria faberii), morningglory (Ipomoea spp.), pigweed (Amaranthus retroflexus), velvetleaf (Abutilon theophrasti), wheat (Triticum aestivum) and corn (Zea mays) were planted into a blend of loam soil and sand and treated preemergence with a directed soil spray using test chemicals formulated in a non-phytotoxic solvent mixture which included a surfactant. At the same time these species were also treated with postemergence applications of test compounds formulated in the same manner.
(§2) Plants ranged in height from two to ten cm and were in the one- to two-leaf stage for the postemergence treatment. Treated plants and untreated controls were maintained in a greenhouse for approximately ten days, after which time all treated plants were compared to untreated controls and visually evaluated for injury. Plant response ratings, summarized in Table A, are based on a 0 to 100 scale where 0 is no effect and 100 is complete control. A dash (-) response means no test result.

[2] = test system: barnyardgrass (Echinochloa crus-galli)
Text: as §1, §2

[3] = test system: pigweed (Amaranthus retroflexus)
Text: as §1, §2

[4] = test system: morningglory (Ipomoea spp.)
Text: as §1, §2

[5] = test system: wheat (Triticum aestivum); conditions: for Wheat plant response rating: visual injury, 0 to 100 scale (0 no effect, 100 complete control)
Text: as §1, §2

[6] = test system: large crabgrass (Digitaria sanguinalis)
Text: as §1, §2

[7] = test system: giant foxtail (Setaria faberii)
Text: as §1, §2

corn (Zea mays) = test system: corn (Zea mays)
Text: as §1, §2

[8] = Postemergence, 125 g ai/ha, 0 to 100 scale where 0 is no effect and 100 is complete control
[9] = Postemergence, 500 g ai/ha, 0 to 100 scale, 0 = no effect, 100 = complete control, approx. ten days
[10] = Preemergence, 125 g ai/ha, 0 to 100 scale, 0 = no effect, 100 = complete control
[11] = Preemergence, 500 g ai/ha, 0 to 100 scale, 0 = no effect, 100 = complete control
[12] = Preemergence, 500 g ai/ha, visual injury, 0 to 100 scale (0 no effect, 100 complete control), approx. ten days
[13] = Postemergence, 500 g ai/ha, approx. ten days
[14] = Postemergence, 500 g ai/ha, visual injury, 0 to 100 scale (0 no effect, 100 complete control), approx. ten days

CCCn1c(-c2ccc3c(c2)OCCO3)ncc(C(=O)C2=C(O)CCCC2=O)c1=O [Compound 149]
Plant response rating, Velvetleaf [1, 8]: 100
Plant response rating, Velvetleaf [1, 9]: 100
Plant response rating, Velvetleaf [1, 10]: 40
Plant response rating, Velvetleaf [1, 11]: 70
Plant response rating, Barnyardgrass [2, 8]: 70
Plant response rating, Barnyardgrass [2, 9]: 90
Plant response rating, Barnyardgrass [2, 10]: 20
Plant response rating, Barnyardgrass [2, 12]: 50
Plant response rating, Pigweed [3, 8]: 70
Plant response rating, Pigweed [3, 9]: 100
Plant response rating, Pigweed [3, 10]: 80
Plant response rating, Pigweed [3, 12]: 100
Plant response rating, Morningglory [4, 8]: 100
Plant response rating, Morningglory [4, 9]: 100
Plant response rating, Morningglory [4, 10]: 0
Plant response rating, Morningglory [4, 12]: 40
Plant response rating, Wheat [5, 8]: 20
Plant response rating, Wheat [5, 9]: 50
Plant response rating, Wheat [5, 10]: 0
Plant response rating, Wheat [5, 11]: 20
Plant response rating, Crabgrass, Large [6, 8]: 40
Plant response rating, Crabgrass, Large [6, 9]: 70
Plant response rating, Crabgrass, Large [6, 10]: 30
Plant response rating, Crabgrass, Large [6, 12]: 80
Plant response rating, Foxtail, Giant [7, 8]: 60
Plant response rating, Foxtail, Giant [7, 9]: 80
Plant response rating, Foxtail, Giant [7, 10]: 10
Plant response rating, Foxtail, Giant [7, 12]: 60
Plant response rating, Corn (corn (Zea mays); [8]): 0
Plant response rating, Corn (corn (Zea mays); [9]): 30
Plant response rating, Corn (corn (Zea mays); [10]): 0
Plant response rating, Corn (corn (Zea mays); [12]): 20

CCCn1c(-c2ccc3ccccc3c2)ncc(C(=O)C2=C(O)CCCC2=O)c1=O [Compound 150]
Plant response rating, Velvetleaf [1, 8]: 50
Plant response rating, Velvetleaf [1, 9]: 90
Plant response rating, Velvetleaf [1, 10]: 0
Plant response rating, Velvetleaf [1, 11]: 0
Plant response rating, Barnyardgrass [2, 8]: 40
Plant response rating, Barnyardgrass [2, 9]: 80
Plant response rating, Barnyardgrass [2, 10]: 0
Plant response rating, Barnyardgrass [2, 12]: 0
Plant response rating, Pigweed [3, 8]: 30
Plant response rating, Pigweed [3, 9]: 60
Plant response rating, Pigweed [3, 10]: 0
Plant response rating, Pigweed [3, 12]: 0
Plant response rating, Morningglory [4, 8]: 100
Plant response rating, Morningglory [4, 9]: 100
Plant response rating, Morningglory [4, 10]: 0
Plant response rating, Morningglory [4, 12]: 0
Plant response rating, Wheat [5, 8]: 0
Plant response rating, Wheat [5, 9]: 20
Plant response rating, Wheat [5, 10]: 0
Plant response rating, Wheat [5, 11]: 0
Plant response rating, Crabgrass, Large [6, 8]: 20
Plant response rating, Crabgrass, Large [6, 9]: 50
Plant response rating, Crabgrass, Large [6, 10]: 0
Plant response rating, Crabgrass, Large [6, 12]: 10
Plant response rating, Foxtail, Giant [7, 8]: 40
Plant response rating, Foxtail, Giant [7, 9]: 70
Plant response rating, Foxtail, Giant [7, 10]: 0
Plant response rating, Foxtail, Giant [7, 12]: 0
Plant response rating, Corn (corn (Zea mays); [8]): 0
Plant response rating, Corn (corn (Zea mays); [9]): 0
Plant response rating, Corn (corn (Zea mays); [10]): 0
Plant response rating, Corn (corn (Zea mays); [12]): 0

O=C1CCCC(O)=C1C(=O)c1cnc(-c2ccccc2)n(C2CCCCCCCCCCC2)c1=O [Compound 165]
Plant response rating, Velvetleaf [1, 8]: 100
Velvetleaf plant response rating [1, 13]: 100
Plant response rating, Velvetleaf [1, 10]: 0
Plant response rating, Velvetleaf [1, 11]: 0
Plant response rating, Barnyardgrass [2, 8]: 0
Barnyardgrass plant response rating [2, 14]: 80
Plant response rating, Barnyardgrass [2, 10]: 0
Plant response rating, Barnyardgrass [2, 11]: 0
Plant response rating, Pigweed [3, 8]: 80
Pigweed plant response rating [3, 14]: 100
Plant response rating, Pigweed [3, 10]: 0
Plant response rating, Pigweed [3, 11]: 0
Plant response rating, Morningglory [4, 8]: 50
Morningglory plant response rating [4, 14]: 100
Plant response rating, Morningglory [4, 11]: 0
Plant response rating, Wheat [5, 8]: 0
Wheat plant response rating [5, 13]: 0
Plant response rating, Wheat [5, 10]: 0
Plant response rating, Wheat [5, 11]: 0
Plant response rating, Crabgrass, Large [6, 8]: 20
Crabgrass, Large plant response rating [6, 14]: 50
Plant response rating, Crabgrass, Large [6, 10]: 0
Plant response rating, Crabgrass, Large [6, 11]: 0
Plant response rating, Foxtail, Giant [7, 8]: 20
Foxtail, Giant plant response rating [7, 14]: 30
Plant response rating, Foxtail, Giant [7, 10]: 0
Plant response rating, Foxtail, Giant [7, 11]: 0
Plant response rating, Corn (corn (Zea mays); [8]): 0
Corn plant response rating (corn (Zea mays); [14]): 30
Plant response rating, Corn (corn (Zea mays); [10]): 0
Plant response rating, Corn (corn (Zea mays); [11]): 0

Cc1ccc(-n2c(-c3cccc(F)c3)ncc(C(=O)C3=C(O)CCCC3=O)c2=O)cc1 [Compound 202]
Plant response rating, Velvetleaf [1, 8]: 100
Velvetleaf plant response rating [1, 13]: 100
Plant response rating, Velvetleaf [1, 10]: 70
Plant response rating, Velvetleaf [1, 11]: 100
Plant response rating, Barnyardgrass [2, 8]: 90
Barnyardgrass plant response rating [2, 14]: 100
Plant response rating, Barnyardgrass [2, 10]: 20
Plant response rating, Barnyardgrass [2, 11]: 100
Plant response rating, Pigweed [3, 8]: 100
Pigweed plant response rating [3, 14]: 100
Plant response rating, Pigweed [3, 10]: 90
Plant response rating, Pigweed [3, 11]: 100
Plant response rating, Morningglory [4, 8]: 100
Morningglory plant response rating [4, 14]: 100
Plant response rating, Morningglory [4, 10]: 0
Plant response rating, Morningglory [4, 11]: 100
Plant response rating, Wheat [5, 8]: 20
Wheat plant response rating [5, 13]: 50
Plant response rating, Wheat [5, 10]: 0
Plant response rating, Wheat [5, 11]: 40
Plant response rating, Crabgrass, Large [6, 8]: 70
Crabgrass, Large plant response rating [6, 14]: 100
Plant response rating, Crabgrass, Large [6, 10]: 50
Plant response rating, Crabgrass, Large [6, 11]: 100
Plant response rating, Foxtail, Giant [7, 8]: 80
Foxtail, Giant plant response rating [7, 14]: 100
Plant response rating, Foxtail, Giant [7, 10]: 50
Plant response rating, Foxtail, Giant [7, 11]: 100
Plant response rating, Corn (corn (Zea mays); [8]): 10
Corn plant response rating (corn (Zea mays); [14]): 30
Plant response rating, Corn (corn (Zea mays); [10]): 20
Plant response rating, Corn (corn (Zea mays); [11]): 40

O=C1CCCC(O)=C1C(=O)c1cnc(-c2cc(F)c(F)c(F)c2)n(C2CCCCC2)c1=O [Compound 205]
Plant response rating, Velvetleaf [1, 8]: 100
Velvetleaf plant response rating [1, 13]: 100
Plant response rating, Velvetleaf [1, 10]: 10
Plant response rating, Velvetleaf [1, 11]: 80
Plant response rating, Barnyardgrass [2, 8]: 90
Barnyardgrass plant response rating [2, 14]: 100
Plant response rating, Barnyardgrass [2, 10]: 0
Plant response rating, Barnyardgrass [2, 11]: 10
Plant response rating, Pigweed [3, 8]: 90
Pigweed plant response rating [3, 14]: 100
Plant response rating, Pigweed [3, 10]: 10
Plant response rating, Pigweed [3, 11]: 90
Plant response rating, Morningglory [4, 8]: 100
Morningglory plant response rating [4, 14]: 100
Plant response rating, Morningglory [4, 10]: 0
Plant response rating, Morningglory [4, 11]: 60
Plant response rating, Wheat [5, 8]: 0
Wheat plant response rating [5, 13]: 10
Plant response rating, Wheat [5, 10]: 0
Plant response rating, Wheat [5, 11]: 0
Plant response rating, Crabgrass, Large [6, 8]: 60
Crabgrass, Large plant response rating [6, 14]: 90
Plant response rating, Crabgrass, Large [6, 10]: 20
Plant response rating, Crabgrass, Large [6, 11]: 90
Plant response rating, Foxtail, Giant [7, 8]: 40
Foxtail, Giant plant response rating [7, 14]: 90
Plant response rating, Foxtail, Giant [7, 10]: 10
Plant response rating, Foxtail, Giant [7, 11]: 80
Plant response rating, Corn (corn (Zea mays); [8]): 0
Corn plant response rating (corn (Zea mays); [14]): 20
Plant response rating, Corn (corn (Zea mays); [10]): 0
Plant response rating, Corn (corn (Zea mays); [11]): 0
